Laboratory results reported in ChEMBL document CHEMBL1201862, “PubChem BioAssay data set” (2004).
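Each compound was tested at five concentrations against cells in 96-well plates for 48 hours. GI50 marks 50% less growth.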 Active and inactive are the calls of the source. Cut-off read from the data, not from the text of the source: active = GI50 up to about 1.1 µM and inactive = higher.

What was measured:
Experiment in all cases: NCI-60 cell line screen, 48 h
UO-31 = test system: UO-31
HL-60 = test system: HL-60
HCT-15 = test system: HCT-15
K562 = test system: K562
SF-295 = test system: SF-295
SF-539 = test system: SF-539
SK-MEL-5 = test system: SK-MEL-5
HCT-116 = test system: HCT-116
786-0 = test system: 786-0
HOP-62 = test system: HOP-62
TK-10 = test system: TK-10
A549 = test system: A549
KM-20L2 = test system: KM-20L2
SK-MEL-2 = test system: SK-MEL-2
SK-OV-3 = test system: SK-OV-3
NCI-H460 = test system: NCI-H460
OVCAR-5 = test system: OVCAR-5
DMS-114 = test system: DMS-114
OVCAR-8 = test system: OVCAR-8
OVCAR-3 = test system: OVCAR-3
IGROV-1 = test system: IGROV-1
COLO 205 = test system: COLO 205
U-251 = test system: U-251
SNB-78 = test system: SNB-78
MOLT-4 = test system: MOLT-4
XF498 = test system: XF498
UACC-62 = test system: UACC-62
NCI-H23 = test system: NCI-H23
DMS-273 = test system: DMS-273
OVCAR-4 = test system: OVCAR-4
HT-29 = test system: HT-29
RPMI-8226 = test system: RPMI-8226
M14 = test system: M14
Malme-3M = test system: Malme-3M
RXF 631 = test system: RXF 631
LOX IMVI = test system: LOX IMVI
HCC 2998 = test system: HCC 2998
NCI-H522 = test system: NCI-H522
SNB-75 = test system: SNB-75
A498 = test system: A498
HOP-92 = test system: HOP-92
NCI-H226 = test system: NCI-H226
M19-MEL = test system: M19-MEL
LXFL 529 = test system: LXFL 529
UACC-257 = test system: UACC-257
SN12C = test system: SN12C
DLD-1 = test system: DLD-1
HOP-18 = test system: HOP-18
SNB-19 = test system: SNB-19
RXF 393 = test system: RXF 393
EKVX = test system: EKVX
SK-MEL-28 = test system: SK-MEL-28
SW-620 = test system: SW-620
SF-268 = test system: SF-268
CCRF-CEM = test system: CCRF-CEM
CAKI-1 = test system: CAKI-1
KM12 = test system: KM12
ACHN = test system: ACHN

SMILES: Cc1cc(C)nc(NS(=O)(=O)c2ccc(NC(=O)c3cccc4c(Nc5ccc(S(N)(=O)=O)cc5)c5ccccc5nc34)cc2)n1
- GI50 (UO-31): > 100 µM (inactive)
- GI50 (HL-60): 7.4 µM (inactive)
- GI50 (HCT-15): > 100 µM
- GI50 (K562): 7.85 µM (inactive)
- GI50 (SF-295): > 66.5 µM (inactive)
- GI50 (SF-539): 3.67 µM (inactive)
- GI50 (SK-MEL-5): 19.1 µM (inactive)
- GI50 (HCT-116): 7.64 µM (inactive)
- GI50 (786-0): 50.8 µM (inactive)
- GI50 (HOP-62): 26.7 µM (inactive)
- GI50 (TK-10): > 74.6 µM (inactive)
- GI50 (A549): > 100 µM (inactive)
- GI50 (KM-20L2): > 75.5 µM (inactive)
- GI50 (SK-MEL-2): 10.2 µM (inactive)
- GI50 (SK-OV-3): 15.2 µM (inactive)
- GI50 (NCI-H460): 44.1 µM (inactive)
- GI50 (OVCAR-5): > 100 µM (inactive)
- GI50 (DMS-114): 17.5 µM (inactive)
- GI50 (OVCAR-8): 30.3 µM (inactive)
- GI50 (OVCAR-3): 9.42 µM (inactive)
- GI50 (IGROV-1): 4.24 µM (inactive)
- GI50 (COLO 205): 26.6 µM (inactive)
- GI50 (U-251): 8.89 µM (inactive)
- GI50 (SNB-78): 9.79 µM (inactive)
- GI50 (MOLT-4): 6.71 µM (inactive)
- GI50 (XF498): 39.2 µM (inactive)
- GI50 (UACC-62): 2.88 µM (inactive)
- GI50 (NCI-H23): 37.1 µM (inactive)
- GI50 (DMS-273): 34.8 µM (inactive)
- GI50 (OVCAR-4): 35.1 µM (inactive)
- GI50 (HT-29): 34.9 µM (inactive)
- GI50 (RPMI-8226): 12.8 µM (inactive)
- GI50 (M14): > 82.6 µM (inactive)
- GI50 (Malme-3M): 18.2 µM (inactive)
- GI50 (RXF 631): > 100 µM (inactive)
- GI50 (LOX IMVI): 19.4 µM (inactive)
- GI50 (HCC 2998): 14.8 µM (inactive)
- GI50 (NCI-H522): 13 µM (inactive)
- GI50 (SNB-75): 5.46 µM (inactive)
- GI50 (A498): > 94.2 µM (inactive)
- GI50 (HOP-92): 20.7 µM (inactive)
- GI50 (NCI-H226): > 100 µM (inactive)
- GI50 (M19-MEL): 13.5 µM (inactive)
- GI50 (LXFL 529): 3.92 µM (inactive)
- GI50 (UACC-257): 28.1 µM (inactive)
- GI50 (SN12C): 16.1 µM (inactive)
- GI50 (DLD-1): > 93.3 µM (inactive)
- GI50 (HOP-18): > 56 µM (inactive)
- GI50 (SNB-19): 4.02 µM (inactive)
- GI50 (RXF 393): 11.2 µM (inactive)
- GI50 (EKVX): > 100 µM (inactive)
- GI50 (SK-MEL-28): 3.09 µM (inactive)
- GI50 (SW-620): 20.6 µM (inactive)
- GI50 (SF-268): 6.59 µM (inactive)
- GI50 (CCRF-CEM): 6.82 µM (inactive)
- GI50 (CAKI-1): > 100 µM (inactive)
- GI50 (KM12): 15.4 µM (inactive)
- GI50 (ACHN): > 100 µM (inactive)

SMILES: CC(C)OC(=O)c1cc(NC(=O)C(C)(C)C)c(F)cc1Cl
- GI50 (UO-31): > 100 µM (inactive)
- GI50 (HL-60): 62.5 µM (inactive)
- GI50 (HCT-15): > 100 µM
- GI50 (K562): > 100 µM (inactive)
- GI50 (SF-295): > 100 µM (inactive)
- GI50 (SF-539): > 100 µM (inactive)
- GI50 (SK-MEL-5): > 100 µM (inactive)
- GI50 (HCT-116): > 100 µM (inactive)
- GI50 (786-0): > 100 µM (inactive)
- GI50 (HOP-62): > 100 µM (inactive)
- GI50 (TK-10): > 100 µM (inactive)
- GI50 (A549): > 100 µM (inactive)
- GI50 (KM-20L2): > 100 µM (inactive)
- GI50 (SK-MEL-2): > 100 µM (inactive)
- GI50 (SK-OV-3): > 100 µM (inactive)
- GI50 (NCI-H460): > 100 µM (inactive)
- GI50 (OVCAR-5): > 100 µM (inactive)
- GI50 (DMS-114): > 100 µM (inactive)
- GI50 (OVCAR-8): > 100 µM (inactive)
- GI50 (OVCAR-3): > 100 µM (inactive)
- GI50 (IGROV-1): > 100 µM (inactive)
- GI50 (COLO 205): > 100 µM (inactive)
- GI50 (U-251): > 100 µM (inactive)
- GI50 (MOLT-4): > 100 µM (inactive)
- GI50 (XF498): > 100 µM (inactive)
- GI50 (UACC-62): > 100 µM (inactive)
- GI50 (NCI-H23): > 100 µM (inactive)
- GI50 (DMS-273): > 100 µM (inactive)
- GI50 (OVCAR-4): > 100 µM (inactive)
- GI50 (HT-29): > 100 µM (inactive)
- GI50 (RPMI-8226): > 100 µM (inactive)
- GI50 (M14): > 100 µM (inactive)
- GI50 (Malme-3M): > 100 µM (inactive)
- GI50 (RXF 631): > 100 µM (inactive)
- GI50 (LOX IMVI): > 100 µM (inactive)
- GI50 (HCC 2998): > 100 µM (inactive)
- GI50 (NCI-H522): > 100 µM (inactive)
- GI50 (SNB-75): > 100 µM (inactive)
- GI50 (A498): > 100 µM (inactive)
- GI50 (HOP-92): > 100 µM (inactive)
- GI50 (NCI-H226): > 100 µM (inactive)
- GI50 (M19-MEL): > 100 µM (inactive)
- GI50 (LXFL 529): > 100 µM (inactive)
- GI50 (UACC-257): > 100 µM (inactive)
- GI50 (SN12C): > 100 µM (inactive)
- GI50 (HOP-18): > 100 µM (inactive)
- GI50 (SNB-19): > 100 µM (inactive)
- GI50 (RXF 393): > 100 µM (inactive)
- GI50 (EKVX): > 100 µM (inactive)
- GI50 (SK-MEL-28): > 100 µM (inactive)
- GI50 (SW-620): > 100 µM (inactive)
- GI50 (SF-268): > 100 µM (inactive)
- GI50 (CCRF-CEM): > 100 µM (inactive)
- GI50 (CAKI-1): > 100 µM (inactive)
- GI50 (KM12): > 100 µM (inactive)
- GI50 (ACHN): > 100 µM (inactive)
